Values quoted from earlier work, collected in patent publication US7006921B1, “Method for accurately estimating pKa of molecules using atom type definitions and partial least squares” (priority 1999, dated 2006).

Details: first or only pKa

Compound	Measured (pKa)
COc1cncc(Br)c1 [3-bromo-5-methoxypyridine, 3-bromo-5-methoxypyridine]	2.60
NC1CCCCCC1O (stereo not shown) [2-aminocycloheptanol]	9.25
CC(C)NCC(O)C1CCC(O)CC1 (stereo not shown) [1-(4′-hydroxycyclohexyl)-2-(isopropylamino)-ethanol]	10.23
NCCNCCO [5-amino-3-azapentanol, 5-amino-3-azapentanol]	9.82
CC#CCN(C)C [N,N-dimethyl-2-butyn-1-amine, N,N-dimethyl-2-butyn-1-amine]	8.28
CSCC[C@H](N)C(=O)O [Methionine]	2.17
NCCSCCSCCN [1,8-diamino-3,6-dithiaoctane, 1,8-diamino-3,6-dithiaoctane]	9.47
c1c[nH]cn1 [imidazole]	6.04
Oc1c(O)c(O)c(O)c(O)c1O [Benzenehexol]	9.0
CNCC(N)=O [2-(methylamino)-acetamide, 2-(methylamino)-acetamide]	8.31
C1N2CN3CN1CN(C2)C3 [Hexamethylenetetramine]	6.2
CC(=O)OCCN(C)C [2-(dimethylamino)-ethyl acetate, 2-(dimethylamino)-ethyl acetate]	8.35
Nc1ccnnc1 [4-aminopyridazine]	6.65

Further lines, results first:

Measured (pKa)	Compound
2.5	O=C(O)c1ccc(Br)cc1C(=O)O [4-bromo-1,2-benzenedicarboxylic acid, 4-bromo-1,2-benzenedicarboxylic acid]
4.06	O=C(O)c1cc(Br)c[nH]1 [4-bromopyrrol-2-carboxylic acid, 4-bromopyrrol-2-carboxylic acid]
2.63	O=C(O)c1coc(C(=O)O)c1 [Furan-2,4-dicarboxylic acid, Furan-2,4-dicarboxylic acid]
2.86	CC(=O)C(CC(=O)O)C(=O)O (stereo not shown) [2-acetylbutanedioic acid, 2-acetylbutanedioic acid]
2.10	Nc1cc(Cl)ncn1 [4-amino-6-chloropyrimidine, 4-amino-6-chloropyrimidine]
4.34	COc1cc(C(=O)O)cc(OC)c1O [4-hydroxy-3,5-dimethoxybenzoic acid, 4-hydroxy-3,5-dimethoxybenzoic acid]
4.80	Oc1cccnc1 [3-hydroxypyridine]
9.12	Oc1cccc(O)c1O [Pyrogallol]
3.22	O=C(O)c1cnn[nH]1 [1,2,3-triazole-4-carboxylic acid, 1,2,3-triazole-4-carboxylic acid]
9.71	Cc1cc(O)cc(C)c1Cl [4-chloro-3,5-dimethylphenol, 4-chloro-3,5-dimethylphenol]
3.26	CC(=O)c1cccnc1 [3-acetylpyridine]
1.80	Nc1ccc(Br)c([N+](=O)[O-])c1 [4-bromo-3-nitroaniline, 4-bromo-3-nitroaniline]
3.74	O=C(O)c1cc[nH]n1 [Pyrazole-3-carboxlylic acid, Pyrazole-3-carboxlylic acid]

Same assay, conditions: second value of the cell, pKa2

Measured (pKa2)	Compound
9.20	CSCC[C@H](N)C(=O)O [Methionine]
8.74	Oc1cccnc1 [3-hydroxypyridine]
